Structures are written as SMILES. Read-outs that look alike come from different tables or passages of the source. Some results are limits rather than exact numbers.

What is called Ki is the dissociation constant of the complex between target and ligand, obtained from inhibition or displacement. By MIC is commonly meant the least concentration at which growth counts as inhibited. Broadly, the IC50 is the point on the concentration scale where inhibition reaches its midpoint. Lower therefore signals greater potency in that assay.

The target of one data set is T1, hCA I (Homo sapiens, UniProt P00915).
T1 construct: made in house
As to the kind of experiment: stopped-flow CO2 hydrase assay, hCA I. It is filed as biochemical. On the procedure:
(§1) The CA isoforms belong to different classes of CA enzymes characterized by different kinetic and structural features to assess isoform selectivity.
(§2) An Applied Photophysics stopped-flow instrument was used to assay CA-catalyzed CO2 hydration activity. […] The uncatalyzed rates were determined in the same manner and subtracted from the total observed rates. Stock solutions of the inhibitor (0.1 mM) were prepared in distilled–deionized water, and dilutions up to 0.01 nM were done thereafter with the assay buffer. Inhibitor and enzyme solutions were preincubated together for 15 min at room temperature prior to the assay to allow for the formation of the E–I complex. The inhibition constants were obtained by non-linear least-squares methods using PRISM 3 and the Cheng–Prusoff equation as reported earlier and represent the mean from at least three different determinations. All CA isoforms were recombinant proteins obtained in house, as reported earlier.

The next data set deals with T2, hCA II (Homo sapiens, UniProt P00918).
T2 construct: made in house
In words: stopped-flow CO2 hydrase assay, hCA II. Type of data set: biochemical. The settings on record: pH 7.4, mean from 3 assays. On the procedure:
as §1, §2

In the next data set the target is T3, E. coli β (Escherichia coli, UniProt P61517).
T3 construct: made in house
As to the kind of experiment: stopped-flow CO2 hydrase assay, E. coli β. Type of data set: biochemical. The settings on record: pH 8.4, mean from 3 assays. On the procedure:
as §1
An Applied Photophysics stopped-flow instrument was used to assay CA-catalyzed CO2 hydration activity. Phenol red (at a concentration of 0.2 mM) was used as an indicator, working at the absorbance maximum of 557 nm, with 20 mM Hepes (pH 7.4 for α-class and pH 8.4 for β- and γ-classes) as a buffer and 20 mM Na2SO4 (to maintain constant the ionic strength), following the initial rates of the CA-catalyzed CO2 hydration reaction for a period of 10–100 s. The CO2 concentrations ranged from 1.7 to 17 mM for the determination of the kinetic parameters and inhibition constants. Enzyme concentrations ranged between 5 and 12 nM. For each inhibitor, at least six traces of the initial 5–10% of the reaction were used to determine the initial velocity. The uncatalyzed rates were determined in the same manner and subtracted from the total observed rates. Stock solutions of the inhibitor (0.1 mM) were prepared in distilled–deionized water, and dilutions up to 0.01 nM were done thereafter with the assay buffer. Inhibitor and enzyme solutions were preincubated together for 15 min at room temperature prior to the assay to allow for the formation of the E–I complex. The inhibition constants were obtained by non-linear least-squares methods using PRISM 3 and the Cheng–Prusoff equation as reported earlier and represent the mean from at least three different determinations. All CA isoforms were recombinant proteins obtained in house, as reported earlier.

Another data set has as its target E. coli γ (Escherichia coli, UniProt P0A9W9). Type of data set: biochemical. The settings on record: stopped-flow CO2 hydrase assay, pH 8.4, mean from 3 assays. On the procedure: as §1, §2
For a further data set, the target named is PsCA1 (Pseudomonas aeruginosa, UniProt Q9I730). As to the kind of experiment: biochemical. The note with it: stopped-flow CO2 hydrase assay, mean from 3 assays. On the procedure:
as §1, §2

The target of the next data set is T4, PsCA3 (Pseudomonas aeruginosa, UniProt Q9HVB9).
T4 construct: made in house
T4 sequence (Q9HVB9 1-215): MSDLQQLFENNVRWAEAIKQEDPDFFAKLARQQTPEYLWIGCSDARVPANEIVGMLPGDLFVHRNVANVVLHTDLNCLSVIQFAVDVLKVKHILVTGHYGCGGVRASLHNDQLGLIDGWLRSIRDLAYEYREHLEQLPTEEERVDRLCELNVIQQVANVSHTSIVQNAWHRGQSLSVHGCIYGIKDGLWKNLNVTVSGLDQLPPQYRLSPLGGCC
As to the kind of experiment: biochemical. The note with it: stopped-flow CO2 hydrase assay, mean from 3 assays. As for the experimental part: as §1, §2

In a further data set the test system is E. faecalis. As to the kind of experiment: MIC and MBC test (NF EN ISO 20776-1), E. faecalis. The note with it: for MIC: Enterococcus faecalis. It is filed as cell-based, Enterococcus faecalis. As for the experimental part:
(§3) Derivatives 2a–f were dissolved in DMSO and further diluted with distilled water to the required final concentration. The microorganisms (E. faecalis, S. aureus, and S. epidermidis reported in Table 4) were cultured overnight at 35 °C in Mueller Hinton Broth 2, Cation-Adjusted (BD, BD 212322, New York, NY, USA) and adjusted to 0.5 McFarland, according to standardized guidelines NF EN ISO 20776-1 [23]. The minimal inhibitory concentration (MIC) test was performed according to the standardized guidelines NF EN ISO 20776-1 [23]. Once the MIC was obtained, the minimal bactericidal concentration (MBC) test was performed.

In the next data set the test system is S. aureus. In words: MIC and MBC test (NF EN ISO 20776-1), S. aureus. It is filed as cell-based, Staphylococcus aureus. On the procedure: as §3
In data set [1] the test system is S. epidermidis. As to the kind of experiment: MIC and MBC test (NF EN ISO 20776-1), S. epidermidis. It is filed as cell-based, Staphylococcus epidermidis. On the procedure:
as §3

Data set [2] has as its system S. epidermidis. In words: photoactivity assay, irradiation with 652 nm laser. The note with it: 652 nm laser 47 min, 30 J/cm2, 2c and 2d at 64 μg/mL, others at MIC. Type of data set: cell-based, Staphylococcus epidermidis. On the procedure: Upon incubation of 1.5–2 h with the products, the samples were irradiated for 47 min with a 652 nm laser (to obtain 1.70 W, 30 J/cm^2). Upon irradiation, the cells were plated and incubated overnight at 35 °C on Mueller Hinton Agar (BD, 225250, New York, NY, USA).

A further data set has as its system MRC-5 cells. In words: cytotoxicity, MTT assay. It is filed as cell-based, human. The settings on record: MRC5; cytotoxicity, human lung fibroblasts, 24 h, MTT. As for the experimental part: The cytotoxicity of the products was tested on MRC-5 cells (lung fibroblasts, ATCC CCL-171) with a seeding concentration of 10,000 cells/well. The products were diluted with a 2% FSC MEM medium (Sigma, M4655, Missouri, MO, USA) to concentrations ranging from 1 to 256 μg/mL and incubated with 80% confluent cells for 24 h. The following day, a 3-[4,5-dimethylthiazol-2-yl]-2,5-diphenyl tetrazolium bromide (MTT) assay was performed, and the optical density of the samples was measured at 540 nm.
Background: Tetrazolium dyes change colour on reduction, which living cells bring about.

A further data set relates to human red blood cells. As to the kind of experiment: hemolysis assay. It is filed as cell-based. The settings on record: 30 min 37 °C. As for the experimental part: Blood collected at CHU Nancy was washed three times with PBS, and 10^7 cells/mL were incubated for 30 min at 37 °C with the newly synthesized compounds. The derivatives were previously diluted to the range from 0.5 to 75/150 μg/mL with PBS. As a positive control, cells were resuspended with 0.01% polysorbate 20 (Tween 20). Tween 20 has often been used as a reference compound for cell lysis. Upon incubation, the samples were centrifuged for 5 min at 800× g, and the supernatant was collected for optical density reading at 540 nm.

[3] abbreviates: bacteriostatic or bactericidal effect, tested up to 8 × MIC.

T1 sequence (P00915 whole entry): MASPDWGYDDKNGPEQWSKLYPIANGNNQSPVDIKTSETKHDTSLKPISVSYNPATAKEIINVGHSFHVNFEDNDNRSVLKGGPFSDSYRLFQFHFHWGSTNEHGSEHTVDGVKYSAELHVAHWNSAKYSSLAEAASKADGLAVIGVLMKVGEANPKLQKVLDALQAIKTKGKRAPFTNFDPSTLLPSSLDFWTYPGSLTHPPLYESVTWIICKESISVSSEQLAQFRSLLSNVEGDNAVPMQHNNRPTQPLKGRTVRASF
T3 sequence (P61517 whole entry): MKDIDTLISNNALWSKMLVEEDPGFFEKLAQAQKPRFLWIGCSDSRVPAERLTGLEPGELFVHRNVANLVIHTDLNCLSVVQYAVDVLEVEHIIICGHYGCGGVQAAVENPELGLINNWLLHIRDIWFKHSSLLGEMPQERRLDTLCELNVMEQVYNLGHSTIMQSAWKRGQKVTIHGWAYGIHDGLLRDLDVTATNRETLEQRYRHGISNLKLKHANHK
PsCA1, sequence (Q9I730 entry or part of it): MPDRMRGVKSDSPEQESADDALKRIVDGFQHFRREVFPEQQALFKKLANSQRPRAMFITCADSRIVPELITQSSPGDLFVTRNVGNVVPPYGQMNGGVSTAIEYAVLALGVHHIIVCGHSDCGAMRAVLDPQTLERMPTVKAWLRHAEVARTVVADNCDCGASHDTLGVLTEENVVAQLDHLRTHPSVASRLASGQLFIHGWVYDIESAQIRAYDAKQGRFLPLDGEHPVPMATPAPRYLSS
E. coli γ, sequence (P0A9W9 whole entry): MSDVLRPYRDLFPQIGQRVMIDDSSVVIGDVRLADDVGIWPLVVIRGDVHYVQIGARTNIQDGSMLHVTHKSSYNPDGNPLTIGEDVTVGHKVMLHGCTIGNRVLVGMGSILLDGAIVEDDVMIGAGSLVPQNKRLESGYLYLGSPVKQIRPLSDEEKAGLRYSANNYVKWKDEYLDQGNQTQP

Consider `CCCN1C(=CC=C2CCCC(C=CC3=[N+](CCC)c4ccccc4C3(C)C)=C2NCCNC(=O)Nc2ccc(S(N)(=O)=O)cc2)C(C)(C)c2ccccc21` [Compound 2b], for which the “selectivity for all assayed bacterial isoforms” value at hCA I (bacterial CA isoforms versus the human off-target hCA I and II) is roughly 10 fold. The Ki at hCA I (stopped-flow CO2 hydrase assay, pH 7.4, mean from 3 assays) was determined as 957 nM; at hCA II, 588 nM; on E. coli β, 69.4 nM; at E. coli γ it was 93.5 nM; at PsCA1, 46.9 nM; at PsCA3, 48.1 nM. Moreover, the MIC in the data set with E. faecalis (light or radiation study, clinical isolate, without irradiation, read-out: MIC E. faecalis) is 16 to 64 µg/mL; in the data set on E. faecalis (span over the four compounds and both strains, read-out: MIC against the E. faecalis and S. aureus strains), 8 to 128 µg/mL; in the data set with S. aureus (Staphylococcus aureus, ATCC29213, light or radiation study, ATCC 29213, without irradiation), 8 to 32 µg/mL; in the data set with S. epidermidis [1] (Staphylococcus epidermidis, ATCC14990, light or radiation study, ATCC 14990, without irradiation) it was 4 to 16 µg/mL. The “MBC E. faecalis” value in the data set on E. faecalis (setting [3]) is given as “bacteriostatic”. For the same compound, the “MBC S. aureus” value in the data set with S. aureus (setting [3]) is recorded as “bacteriostatic”. In addition, the “MBC S. epidermidis” value with S. epidermidis [1] (Table 3) and in the data set on S. epidermidis [1] (setting [3]) was “bacteriostatic” in each case. In addition, the “Growth Reduction” value in the data set with S. epidermidis [2] is listed as 2 log reduction. In the data set with MRC-5 cells, this compound registered an IC50 of 82.2 µg/mL. Also, in the data set with human red blood cells (0.5–150 µg/mL, compared with 0.01% Tween 20), the “hemolysis activity, cytotoxicity to human red blood cells” value is given as “significant cytotoxicity”. The “concentration above which cytotoxic to human red blood cells” value in the data set with human red blood cells (hemolysis assay) was greater than 75 µg/mL.

The record behind these values is PMC10254030, “Photoactivatable Heptamethine-Based Carbonic Anhydrase Inhibitors Leading to New Anti-Antibacterial Agents” (International Journal of Molecular Sciences, 2023).
